Data published in PMC8377175, “Antidiabetic effect of bio-enhanced preparation of turmeric in streptozotocin-nicotinamide induced type 2 diabetic Wistar rats” (Journal of Ayurveda and Integrative Medicine, 2021).
Marks after values point to notes of the source that are not given here.

Experiments:
Body weight measurement = assay type: in vivo, Wistar rats; conditions: for Body weight, Day 1: Day 1 of treatment (baseline), in g (unit assumed); for Body weight, Day 1 / Body weight, Day 30: mean ± SD; for Percentage change in body weight on Day 30 when compared to baseline, Gain (+)/Loss (−) / Body weight, Day 30: 30 days
Description: (§1) Wistar rats were divided into seven groups, each group had six rats. Treatment for all the groups was started on the 4th day after diabetes induction procedure. The same was considered as Day 1 for treatment and continued for 30 days. The animals were treated for 30 days. The treatment schedule of various groups were as follows: Normal control (NC) (1 mL of 1% Tween 80, per oral), Diabetic control (DC) (1 mL of 1% Tween 80, per oral), two Standard control groups were treated with GLIB (5 mg/kg, per oral) and MET (500 mg/kg, per oral), two test groups were treated with bio-BTE (30 mg/kg, per oral and 60 mg/kg, per oral) and one test group was treated with RTE (30 mg/kg, per oral). The vehicle used for the study in all the groups were 1% Tween 80. Oral feeding of drugs was done using steel oral gavage tube (16 G, 7.6 cm). During the treatment period, rats also received standard pelleted chow (VRK Nutritional solutions) and water ad libitum during treatment.
Body weight of the rats was measured before induction (on the day of induction), on Day 1 of treatment and also on Day 30 of treatment. Percentage change in body weight was calculated using the formula (BodyweightonDay30oftreatment−BodyweightonDay1oftreatment)/(BodyweightonDay1oftreatment)×100

[1] = tested on: streptozotocin-nicotinamide induced type 2 diabetic Wistar rats; test: HOMA2 calculator: insulin resistance, insulin sensitivity, beta-cell function, and their correlation with serum insulin; assay type: in vivo; conditions: 30 days, mean ± SD
Description: FBG, OG1 and OG2 values were estimated from blood drops that were obtained from rat tail tip using Accu-Check Glucometer. […] These serum samples were stored at −80 °C before insulin levels were assayed using DRG Rat insulin ELISA Kit. […] One-way ANOVA followed by post hoc analysis with Tukey test was conducted to evaluate statistically significant differences in the study variables between treatment groups. Pearson two-tailed correlation analysis was used to evaluate the correlation between serum insulin and IR; serum insulin and %B; and serum insulin & %S. SPSS version 21.0 was used to conduct statistical analysis in this study.

[2] = tested on: streptozotocin-nicotinamide induced type 2 diabetic Wistar rats; test: Fasting serum insulin (DRG Rat insulin ELISA Kit) in STZ-NA diabetic rats; assay type: in vivo; conditions: 30 days, mean ± SD
Description: as §1, with “During the treatment period, rats also received standard pelleted chow (VRK Nutritional solutions) and water ad libitum during treatment.” left out
FBG was estimated in all rats before administration of STZ and NA and had FBG level less than 126 mg/dl. […] FBG values were measured at 0 min (before glucose administration) and OGTT readings (OG1 and OG2) were measured at 60 and 120 min after administration of glucose solution. […] On Day 30 of treatment, FBG was measured and after anaesthetizing rats with ether, blood was collected from overnight fasted rats using cardiac puncture into red-coloured procoagulant vacutainers and centrifuged at 3000 rpm for 7 min to obtain serum. […]

[3] = tested on: streptozotocin-nicotinamide induced type 2 diabetic Wistar rats; test: Fasting blood glucose and oral glucose tolerance test in STZ-NA diabetic rats; assay type: in vivo; conditions: mean ± SD; for OG1 (OGTT 60 min), Day 29 Readings (after treatment) / OG2 (OGTT 120 min), Day 29 Readings (after treatment) / OG1 (OGTT 60 min), Day 1 Readings (baseline) / OG2 (OGTT 120 min), Day 1 Readings (baseline): glucose 2 g/kg; for OG1 (OGTT 60 min), Day 29 Readings (after treatment) / OG2 (OGTT 120 min), Day 29 Readings (after treatment) / FBG, Day 29 Readings (after treatment) / FBG, Day 1 Readings (baseline) / OG1 (OGTT 60 min), Day 1 Readings (baseline) / OG2 (OGTT 120 min), Day 1 Readings (baseline): n = 6; for FBG, Day 1 Readings (baseline): Day 1 baseline (4th day after induction); for OG1 (OGTT 60 min), Day 1 Readings (baseline) / OG2 (OGTT 120 min), Day 1 Readings (baseline): Day 1 baseline; for Day 30 FBG: 30 days
Description: This study was done at the Department of Pharmacology, Kasturba Medical College, […] Academy of Higher Education, […]. The diabetic model that we have used in this study was STZ-NA model. DM was induced in male Wistar rats by giving NA and STZ injections, intraperitoneally. […] Citrate buffer (0.1 M), which has been used as solvent for mixing STZ, was made by dissolving solution of trisodium citrate (294.10 mg in 100 mL of distilled water) with citric acid solution (210.10 mg in 100 mL of distilled water) to attain pH 4.5. Ice was kept around the glass beaker containing Citrate buffer to maintain citrate buffer at lower temperatures. Normal control rats were administered with Citrate buffer alone intraperitoneally. […] Wistar rats were divided into seven groups, each group had six rats. Treatment for all the groups was started on the 4th day after diabetes induction procedure. The same was considered as Day 1 for treatment and continued for 30 days. The animals were treated for 30 days. The treatment schedule of various groups were as follows: Normal control (NC) (1 mL of 1% Tween 80, per oral), Diabetic control (DC) (1 mL of 1% Tween 80, per oral), two Standard control groups were treated with GLIB (5 mg/kg, per oral) and MET (500 mg/kg, per oral), two test groups were treated with bio-BTE (30 mg/kg, per oral and 60 mg/kg, per oral) and one test group was treated with RTE (30 mg/kg, per oral). The vehicle used for the study in all the groups were 1% Tween 80. Oral feeding of drugs was done using steel oral gavage tube (16 G, 7.6 cm). During the treatment period, rats also received standard pelleted chow (VRK Nutritional solutions) and water ad libitum during treatment. […] FBG, OG1 and OG2 values were estimated from blood drops that were obtained from rat tail tip using Accu-Check Glucometer. […] These serum samples were stored at -80 °C before insulin levels were assayed using DRG Rat insulin ELISA Kit.

CN(C)C(=N)N=C(N)N [MET, Metformin]
Body weight, Day 1 (Body weight measurement; MET 500 mg/kg per oral group): 183.67 ± 7.82 | Percentage change in body weight on Day 30 when compared to baseline, Gain (+)/Loss (−) (Body weight measurement; MET 500 mg/kg per oral): −12.07% | Body weight, Day 30 (Body weight measurement; MET 500 mg/kg per oral): 161.5 ± 7.74^acd | Day 30 Beta cell function (%B) ([1]; MET 500 mg/kg per oral): 42.03 ± 37.09^acd % | Day 30 Insulin Resistance (IR) ([1]; MET 500 mg/kg per oral): 0.73 ± 0.31^bc | Day 30 Insulin Sensitivity (%S) ([1]; MET 500 mg/kg per oral): 160.70 ± 68.64^abcd % | Day 30 Serum Insulin ([2]; MET 500 mg/kg per oral): 35.63 ± 16.81^c pmol/L | OG1 (OGTT 60 min), Day 29 Readings (after treatment) ([3]; MET 500 mg/kg per oral daily): 329.33 ± 12.91^abd mg/dL | OG2 (OGTT 120 min), Day 29 Readings (after treatment) ([3]; MET 500 mg/kg per oral daily): 203.67 ± 58.96^b mg/dL | FBG, Day 29 Readings (after treatment) ([3]; MET 500 mg/kg per oral daily): 144.83 ± 53.86^b mg/dL | FBG, Day 1 Readings (baseline) ([3]; MET 500 mg/kg per oral group): 128.33 ± 5.32^a mg/dL | OG1 (OGTT 60 min), Day 1 Readings (baseline) ([3]; MET 500 mg/kg per oral group): 421.67 ± 39.52^a mg/dL | OG2 (OGTT 120 min), Day 1 Readings (baseline) ([3]; MET 500 mg/kg per oral group): 301.50 ± 64.05^a mg/dL | Day 30 FBG ([3]; MET 500 mg/kg per oral): 141.00 ± 52.33^abcd mg/dL

COc1ccc(Cl)cc1C(=O)NCCc1ccc(S(=O)(=O)NC(=O)NC2CCCCC2)cc1 [GLIB, Glibenclamide]
Body weight, Day 1 (Body weight measurement; GLIB 5 mg/kg per oral group): 179.67 ± 3.08 | Percentage change in body weight on Day 30 when compared to baseline, Gain (+)/Loss (−) (Body weight measurement; GLIB 5 mg/kg per oral): +23% | Body weight, Day 30 (Body weight measurement; GLIB 5 mg/kg per oral): 221 ± 8.07^abcd | Day 30 Beta cell function (%B) ([1]; GLIB 5 mg/kg per oral): 183.13 ± 68.69^b % | Day 30 Insulin Resistance (IR) ([1]; GLIB 5 mg/kg per oral): 2.70 ± 0.84^abd | Day 30 Insulin Sensitivity (%S) ([1]; GLIB 5 mg/kg per oral): 41.08 ± 16.03% | Day 30 Serum Insulin ([2]; GLIB 5 mg/kg per oral): 145.68 ± 41.06^abd pmol/L | OG1 (OGTT 60 min), Day 29 Readings (after treatment) ([3]; GLIB 5 mg/kg per oral daily): 154.17 ± 76.55^b mg/dL | OG2 (OGTT 120 min), Day 29 Readings (after treatment) ([3]; GLIB 5 mg/kg per oral daily): 117.50 ± 16.21^b mg/dL | FBG, Day 29 Readings (after treatment) ([3]; GLIB 5 mg/kg per oral daily): 95.17 ± 27.97^b mg/dL | FBG, Day 1 Readings (baseline) ([3]; GLIB 5 mg/kg per oral group): 130.5 ± 5.43^a mg/dL | OG1 (OGTT 60 min), Day 1 Readings (baseline) ([3]; GLIB 5 mg/kg per oral group): 420.67 ± 21.71^a mg/dL | OG2 (OGTT 120 min), Day 1 Readings (baseline) ([3]; GLIB 5 mg/kg per oral group): 358.50 ± 34.65^a mg/dL | Day 30 FBG ([3]; GLIB 5 mg/kg per oral): 96.67 ± 26.49^b mg/dL
